Test results published in patent US11197865B2, “Applications for promethazine in preparing anti-liver cancer and/or colon cancer and/or lung cancer products” (SHANGHAI JIAO TONG UNIVERSITY, priority 2015, dated 2021).

Assays:
Type in all cases: cell-based
HUH-7 liver cancer cells = assay: CellTiter-Glo luminescent cell viability assay, HUH-7 liver cancer cells; details: Homo sapiens, 72 hours
Description: (§1) In example 1, CELLTITER-GLO was used to test promethazine against liver cancer and/or colon cancer. n) HUH-7 cells and LoVo cells were handled as described above, and HUH-7 96-well cell culture plates and LoVo 96-well cell culture plates were obtained, respectively. The complete medium for HUH-7 cells was DMEM (a live product), Cat #11995081, with a cells/well density of 6000. 2. […] The final concentrations (μM) of the analyte drug in wells 2-10 in FIG. 1 are, in order: 100, 31.64557, 10.01442, 3.16912, 1.002886, 0.317369, 0.100433, 0.031783, 0.010058; B. CELLTITER-GLO Luminescent Cell Viability Assay System a) Before testing, the HUH-7 96-well drug screening plate and the LoVo 96-well drug screening plate described in 3 above were stabilized to room temperature for 20-30 minutes. c) 100 μl of CellTiter-Glo reagent (prepared as described in 1 above) was added to all drug screening plates and mixed evenly. d) It was thoroughly oscillated in a 96-well microplate oscillator for 2 minutes to allow the cells to undergo full lysis. e) It was stored away from light at room temperature for 15 minutes before carrying out luminescent signal detection to ensure signal stability. f) An EnSpire multi-function plate reader was used at 570 nm to read the luminescent signals. g) Data was processed and analyzed.

LoVo colon cancer cells = assay: CellTiter-Glo luminescent cell viability assay, LoVo colon cancer cells; details: Homo sapiens, 72 hours
Description: as §1, with “for LoVo” for “for HUH-7”, “of 8000.” for “of 6000.”

[1] = system: SKOV-3 human ovarian cancer cells; assay: CellTiter-Glo luminescent cell viability assay, SKOV-3 ovarian cancer cells; details: SK-OV-3, SKOV-3 cells, 72 hours
[2] = system: NCI-H661 large-cell lung cancer cells; assay: CellTiter-Glo luminescent cell viability assay, NCI-H661 large-cell lung cancer cells; details: Homo sapiens, 72 hours
[3] = system: NCI-H2141 lung cancer cells; assay: CellTiter-Glo luminescent cell viability assay, NCI-H2141 lung cancer cells; details: 72 hours

EC50 (HUH-7 liver cancer cells; FIG. 2, liver cancer (HUH-7)): 42 µM
IC50 (HUH-7 liver cancer cells; HUH-7 cells): 31.4 µM
IC50 (LoVo colon cancer cells): 33.5 µM
IC50 [1]: ≥ 100 µM
IC50 [2]: ≥ 100 µM
EC50 ([3]; FIG. 4, lung cancer (NCI-H2141)): 33.9 µM
IC50 ([3]; NCI-H2141 cells): 34.6 µM
SMILES: CC(CN1c2ccccc2Sc2ccccc21)N(C)C (stereo not shown) [promethazine]
